Values joined by “and” are separate entries in the source; they are usually repeats but may differ in a detail not shown here. Equal values may be shown once. Read-outs that look alike come from different tables or passages of the source.
Tests used:
[1] = test system: KV channel; assay: In vitro CEREP profiling, KV channel (antagonist radioligand); format: binding; conditions: test compound concentration 10 uM
From the text: (§1) Supplement media-1.zip/Safety_Panel_Profile.csv, table | column: perc_inhibition

[2] = biological target: T1, Potassium Channel hERG (human) (Homo sapiens, UniProt Q12809); assay: In vitro CEREP profiling, Potassium Channel hERG (human)- [3H] Dofetilide; format: binding; conditions: test compound concentration 10 uM
T1 construct: purchased Eurofins Cerep (SafetyScreen44), recognised from the panel format
From the text: as §1

[3] = test system: Ca2+ channel (L, dihydropyridine site); assay: In vitro CEREP profiling, Ca2+ channel (L, dihydropyridine site) (antagonist radioligand); format: binding; conditions: test compound concentration 10 uM
From the text: as §1

[4] = biological target: T2, Lck kinase (h) (Homo sapiens, UniProt P06239); assay: In vitro CEREP profiling, Lck kinase (h); format: biochemical; conditions: test compound concentration 10 uM, Enzyme and Cell-based assays
T2 construct: purchased Eurofins Cerep (SafetyScreen44), recognised from the panel format
From the text: as §1

[5] = biological target: T3, PDE3A (h) (Homo sapiens, UniProt Q14432); assay: In vitro CEREP profiling, PDE3A (h); format: biochemical; conditions: test compound concentration 10 uM, Enzyme and Cell-based assays
T3 construct: purchased Eurofins Cerep (SafetyScreen44), recognised from the panel format
From the text: as §1

[6] = test system: Na+ channel (site 2); assay: In vitro CEREP profiling, Na+ channel (site 2) (antagonist radioligand); format: binding; conditions: test compound concentration 10 uM
From the text: as §1

[7] = test system: MERS-CoV; assay: microbe, parasite or virus in culture; format: cell-based; conditions: for perc_max_measured: maximum measured response of dose series; for perc_min_measured: minimum measured response of dose series
[8] = biological target: T4, beta1 (h) (Homo sapiens, UniProt P08588); assay: In vitro CEREP profiling, beta1 (h) (agonist radioligand); format: binding; conditions: test compound 10 uM
T4 construct: purchased Eurofins Cerep (SafetyScreen44), recognised from the panel format
From the text: as §1

[9] = test system: Vero E6/TMPRSS2; assay: Vero E6/TMPRSS2 cytotoxicity with P-gp inhibitor; format: cell-based; conditions: for perc_max_measured: highest measured response of the dose series; for perc_min_measured: lowest measured response of the dose series
From the text: Supplement media-1.zip/Cytotoxicity.csv, table | column: cc10; cc50; perc_min_measured; perc_max_measured

[10] = biological target: T5, PDE4D2 (h) (Homo sapiens, UniProt Q08499); assay: In vitro CEREP profiling, PDE4D2 (h); format: biochemical; conditions: test compound concentration 10 uM, Enzyme and Cell-based assays
T5 construct: purchased Eurofins Cerep (SafetyScreen44), recognised from the panel format
From the text: as §1

[11] = biological target: hERG (Homo sapiens, UniProt Q12809); assay: In vitro hERG cardiotoxocity; conditions: for IC50: top test concentration 30 uM
From the text: Supplement media-1.zip/Cardiotoxicity.csv, table | column: ic50; perc_inhibition_top_conc

[12] = In vitro rat hepatocyte stability; format: in vitro ADME
From the text: Supplement media-1.zip/Hepatocyte_Stability.csv, table | column: clint; t_half

[13] = test system: CYP; assay: CYP inhibition; format: in vitro ADME; conditions: In vitro CYP inhibition pooled; for potency: potency class in words
From the text: Supplement media-1.zip/CYP_Inhibition.csv, table | column: ic50; potency

[14] = biological target: T6, alpha2A (h) (Homo sapiens, UniProt P08913); assay: In vitro CEREP profiling, alpha2A (h) (antagonist radioligand); format: binding; conditions: test compound 10 uM
T6 construct: purchased Eurofins Cerep (SafetyScreen44), recognised from the panel format
T6 sequence (P08913 1-465): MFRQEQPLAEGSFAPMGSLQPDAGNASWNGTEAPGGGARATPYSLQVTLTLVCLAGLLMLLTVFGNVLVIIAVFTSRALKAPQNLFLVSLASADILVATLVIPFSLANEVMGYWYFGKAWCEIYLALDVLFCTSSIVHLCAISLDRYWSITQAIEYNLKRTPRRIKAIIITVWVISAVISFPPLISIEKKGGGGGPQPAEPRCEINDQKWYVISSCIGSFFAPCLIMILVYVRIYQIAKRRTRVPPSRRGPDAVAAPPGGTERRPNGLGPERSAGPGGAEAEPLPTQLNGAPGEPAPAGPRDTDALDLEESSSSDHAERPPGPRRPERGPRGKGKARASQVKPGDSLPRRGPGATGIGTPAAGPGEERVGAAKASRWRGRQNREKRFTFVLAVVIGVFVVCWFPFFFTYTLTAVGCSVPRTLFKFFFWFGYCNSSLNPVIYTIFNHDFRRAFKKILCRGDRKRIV
From the text: as §1

[15] = biological target: T7, COX2(h) (Homo sapiens, UniProt P35354); assay: In vitro CEREP profiling, COX2(h); format: biochemical; conditions: test compound concentration 10 uM, Enzyme and Cell-based assays
T7 construct: purchased Eurofins Cerep (SafetyScreen44), recognised from the panel format
T7 sequence (P35354 18-604): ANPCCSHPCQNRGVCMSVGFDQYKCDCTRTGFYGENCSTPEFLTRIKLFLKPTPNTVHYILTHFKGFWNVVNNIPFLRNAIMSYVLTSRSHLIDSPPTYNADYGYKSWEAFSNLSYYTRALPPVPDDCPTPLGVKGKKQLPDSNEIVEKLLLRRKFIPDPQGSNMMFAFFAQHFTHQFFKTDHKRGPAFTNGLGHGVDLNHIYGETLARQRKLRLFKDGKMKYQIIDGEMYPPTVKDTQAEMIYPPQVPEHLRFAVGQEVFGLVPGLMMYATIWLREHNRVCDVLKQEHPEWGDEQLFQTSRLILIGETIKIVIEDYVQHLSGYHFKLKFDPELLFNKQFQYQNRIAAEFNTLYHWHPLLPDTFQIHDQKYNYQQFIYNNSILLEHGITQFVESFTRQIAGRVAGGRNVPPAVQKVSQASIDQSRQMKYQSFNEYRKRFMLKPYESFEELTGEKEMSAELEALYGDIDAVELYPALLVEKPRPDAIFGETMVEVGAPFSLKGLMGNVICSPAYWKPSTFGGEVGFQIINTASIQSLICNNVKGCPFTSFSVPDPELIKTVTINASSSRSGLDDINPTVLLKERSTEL
From the text: as §1

[16] = Hepatic microsomal stability, HLM; format: in vitro ADME, human
[17] = Vero E6/TMPRSS2 MERS-CoV antiviral effect with P-gp inhibitor
[18] = Middle East respiratory syndrome-related coronavirus, VeroE6/TMPRSS2
[19] = read-out: perc_inhibition (% inhibition of the binding of a ligand specific for each target)
[20] = In vitro human liver microsomal stability

Chain of hERG (Q12809 whole entry): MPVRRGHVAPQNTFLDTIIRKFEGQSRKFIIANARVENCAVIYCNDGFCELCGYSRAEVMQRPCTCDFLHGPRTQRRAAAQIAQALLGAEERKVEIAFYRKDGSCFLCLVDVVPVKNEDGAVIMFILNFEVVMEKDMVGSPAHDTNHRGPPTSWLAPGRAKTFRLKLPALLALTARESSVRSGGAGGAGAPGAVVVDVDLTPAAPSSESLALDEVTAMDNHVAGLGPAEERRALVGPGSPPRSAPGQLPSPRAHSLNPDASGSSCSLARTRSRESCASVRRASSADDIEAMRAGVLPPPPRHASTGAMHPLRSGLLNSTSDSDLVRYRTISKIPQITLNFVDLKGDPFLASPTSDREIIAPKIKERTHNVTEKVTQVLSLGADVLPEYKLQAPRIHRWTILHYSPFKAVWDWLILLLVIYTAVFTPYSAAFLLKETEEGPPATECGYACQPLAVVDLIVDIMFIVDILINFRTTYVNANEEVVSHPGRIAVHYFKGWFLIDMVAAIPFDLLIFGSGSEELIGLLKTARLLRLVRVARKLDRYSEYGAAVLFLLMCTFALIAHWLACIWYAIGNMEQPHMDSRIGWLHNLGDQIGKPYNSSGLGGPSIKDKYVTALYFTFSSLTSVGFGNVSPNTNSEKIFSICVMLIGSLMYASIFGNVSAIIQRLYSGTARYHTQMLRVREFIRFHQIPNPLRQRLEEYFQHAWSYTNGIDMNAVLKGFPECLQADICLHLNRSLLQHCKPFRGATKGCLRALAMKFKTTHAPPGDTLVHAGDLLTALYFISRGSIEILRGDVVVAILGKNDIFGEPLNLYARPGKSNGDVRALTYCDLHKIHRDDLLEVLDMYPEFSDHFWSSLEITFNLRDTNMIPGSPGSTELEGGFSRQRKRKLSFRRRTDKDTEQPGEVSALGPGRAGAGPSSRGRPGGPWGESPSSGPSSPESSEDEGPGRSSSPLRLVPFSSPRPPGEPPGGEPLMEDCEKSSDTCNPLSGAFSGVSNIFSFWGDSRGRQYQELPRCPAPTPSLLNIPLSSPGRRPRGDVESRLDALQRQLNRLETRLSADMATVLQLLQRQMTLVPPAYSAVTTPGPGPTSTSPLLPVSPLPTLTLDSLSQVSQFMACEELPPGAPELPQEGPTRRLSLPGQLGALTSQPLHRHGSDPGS
T5 sequence (Q08499 303-809): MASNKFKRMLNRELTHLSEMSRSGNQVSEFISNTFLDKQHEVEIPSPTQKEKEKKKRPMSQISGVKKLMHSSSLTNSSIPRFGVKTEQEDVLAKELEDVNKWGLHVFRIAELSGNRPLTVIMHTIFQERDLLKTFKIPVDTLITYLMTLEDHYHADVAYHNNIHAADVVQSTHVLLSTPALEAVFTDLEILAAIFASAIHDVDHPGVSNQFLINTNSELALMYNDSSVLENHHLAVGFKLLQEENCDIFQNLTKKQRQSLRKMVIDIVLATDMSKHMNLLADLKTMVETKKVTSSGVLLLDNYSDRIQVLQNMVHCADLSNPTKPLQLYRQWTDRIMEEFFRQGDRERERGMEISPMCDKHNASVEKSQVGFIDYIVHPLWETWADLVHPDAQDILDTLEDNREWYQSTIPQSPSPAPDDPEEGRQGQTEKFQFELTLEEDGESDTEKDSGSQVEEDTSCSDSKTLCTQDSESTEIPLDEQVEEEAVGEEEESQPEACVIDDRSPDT
T3 sequence (Q14432 whole entry): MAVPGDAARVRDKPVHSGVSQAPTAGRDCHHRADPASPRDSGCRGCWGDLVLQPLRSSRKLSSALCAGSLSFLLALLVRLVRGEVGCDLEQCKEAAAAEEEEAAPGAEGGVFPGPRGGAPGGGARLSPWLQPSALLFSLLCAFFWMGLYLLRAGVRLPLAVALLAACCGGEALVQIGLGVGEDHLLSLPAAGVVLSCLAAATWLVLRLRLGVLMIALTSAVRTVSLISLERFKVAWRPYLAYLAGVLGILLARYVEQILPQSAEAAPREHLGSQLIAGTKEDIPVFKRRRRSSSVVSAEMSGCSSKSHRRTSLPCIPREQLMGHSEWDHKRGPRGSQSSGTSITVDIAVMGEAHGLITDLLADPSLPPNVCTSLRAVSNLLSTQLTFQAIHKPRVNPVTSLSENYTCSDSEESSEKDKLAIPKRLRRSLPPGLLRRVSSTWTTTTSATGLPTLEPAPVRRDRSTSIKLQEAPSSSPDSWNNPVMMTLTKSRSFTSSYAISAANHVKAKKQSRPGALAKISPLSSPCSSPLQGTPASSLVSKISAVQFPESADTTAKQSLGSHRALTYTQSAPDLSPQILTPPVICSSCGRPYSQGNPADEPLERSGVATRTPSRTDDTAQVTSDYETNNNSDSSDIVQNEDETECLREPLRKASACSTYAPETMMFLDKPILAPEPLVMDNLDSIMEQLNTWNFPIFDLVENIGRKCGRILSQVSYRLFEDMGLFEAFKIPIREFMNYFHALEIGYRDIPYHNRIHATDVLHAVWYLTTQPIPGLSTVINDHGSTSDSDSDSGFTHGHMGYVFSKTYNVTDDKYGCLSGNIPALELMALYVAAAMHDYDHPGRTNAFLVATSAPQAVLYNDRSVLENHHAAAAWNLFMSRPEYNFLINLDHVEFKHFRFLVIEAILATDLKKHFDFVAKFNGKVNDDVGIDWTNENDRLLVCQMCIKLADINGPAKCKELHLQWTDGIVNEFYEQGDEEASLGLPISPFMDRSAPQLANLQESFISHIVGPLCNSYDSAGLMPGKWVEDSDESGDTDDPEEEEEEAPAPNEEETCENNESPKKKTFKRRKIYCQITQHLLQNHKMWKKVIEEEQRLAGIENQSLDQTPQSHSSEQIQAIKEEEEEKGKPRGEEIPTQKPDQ
T2 sequence (P06239 whole entry): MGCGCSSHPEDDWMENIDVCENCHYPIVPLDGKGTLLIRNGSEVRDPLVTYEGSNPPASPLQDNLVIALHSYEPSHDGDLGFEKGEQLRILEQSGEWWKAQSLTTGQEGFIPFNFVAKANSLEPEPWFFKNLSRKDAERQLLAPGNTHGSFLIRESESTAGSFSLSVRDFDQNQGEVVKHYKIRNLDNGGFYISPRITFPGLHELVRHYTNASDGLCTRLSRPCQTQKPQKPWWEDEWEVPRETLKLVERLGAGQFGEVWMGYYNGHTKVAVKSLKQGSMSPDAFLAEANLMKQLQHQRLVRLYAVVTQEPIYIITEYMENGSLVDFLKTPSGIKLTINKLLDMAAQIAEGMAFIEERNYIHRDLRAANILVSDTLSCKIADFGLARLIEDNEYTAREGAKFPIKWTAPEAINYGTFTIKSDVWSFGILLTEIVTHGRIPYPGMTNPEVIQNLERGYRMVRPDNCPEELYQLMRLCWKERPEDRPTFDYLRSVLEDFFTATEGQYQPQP
T4 sequence (P08588 whole entry): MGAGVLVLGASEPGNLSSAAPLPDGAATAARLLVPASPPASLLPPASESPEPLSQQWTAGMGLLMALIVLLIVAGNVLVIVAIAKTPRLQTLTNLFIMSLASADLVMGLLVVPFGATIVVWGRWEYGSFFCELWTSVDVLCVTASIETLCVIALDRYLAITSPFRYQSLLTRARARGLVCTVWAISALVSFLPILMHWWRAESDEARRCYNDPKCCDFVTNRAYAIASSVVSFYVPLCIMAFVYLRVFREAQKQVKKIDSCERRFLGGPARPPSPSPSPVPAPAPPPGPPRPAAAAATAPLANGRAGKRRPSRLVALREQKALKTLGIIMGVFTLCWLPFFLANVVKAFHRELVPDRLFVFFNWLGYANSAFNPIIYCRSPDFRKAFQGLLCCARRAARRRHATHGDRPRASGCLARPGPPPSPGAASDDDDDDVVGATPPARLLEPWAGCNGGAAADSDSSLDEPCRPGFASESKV
T1 sequence (Q12809 whole entry): as the sequence (Q12809 whole entry) above

| Compound | perc_inhibition (% inhibition of the binding of a ligand specific for each target) [1] | perc_inhibition (% inhibition of the binding of a ligand specific for each target) [3] | perc_inhibition (% inhibition of the binding of a ligand specific for each target) [6] | perc_max_measured [7, 17] | perc_min_measured [7, 17] | cc10 [9] | perc_max_measured [9] | perc_min_measured [9] | IC50 [11] | clint [12] | t_half [12] | potency ([13]; isoform 1A2) | potency ([13]; isoform 2C9) | potency ([13]; isoform 2C19) | potency ([13]; isoform 2D6) | potency ([13]; isoform 3A4) | also measured |
| --- | --- | --- | --- | --- | --- | --- | --- | --- | --- | --- | --- | --- | --- | --- | --- | --- | --- |
| CC(C)[C@@H](Nc1ncnc2[nH]c(-c3cnn(C)c3C#N)cc12)c1ccc2c(n1)OCCO2 [ASAP-0010716] | 2% | 10% | 12% | 144.33% and 125.176% | 55.976% and 101.272% | > 5.0 µM | 116.627% | 99.207% | 10.1 µM | 182.0 uL/min/1E6 cells | 3.8 min | moderate | moderate | moderate | weak | moderate | perc_inhibition (% inhibition of the binding of a ligand specific for each target) [2]: 32%; perc_inhibition: % inhibition of control enzyme activity, Lck kinase (h) [4]: 34%; perc_inhibition: % inhibition of control enzyme activity, PDE3A (h) [5]: 37%; EC50 ([7]; Vero E6/TMPRSS2 MERS-CoV antiviral effect with P-gp inhibitor, read-out: ec50): > 5 µM; EC90 ([7]; Vero E6/TMPRSS2 MERS-CoV antiviral effect with P-gp inhibitor, read-out: ec90): > 5 µM; perc_inhibition (% inhibition of the binding of a ligand specific for each target) [8]: -2%; CC50 [9]: > 5 µM; perc_inhibition: % inhibition of control enzyme activity, PDE4D2 (h) [10]: 44%; IC50 ([13]; isoform 1A2): 8.86 µM; IC50 ([13]; isoform 2C9): 4.34 µM; IC50 ([13]; isoform 2C19): 9.51 µM; IC50 ([13]; isoform 2D6): 22.7 µM; IC50 ([13]; isoform 3A4): 2.07 µM; perc_inhibition (% inhibition of the binding of a ligand specific for each target) [14]: 9%; perc_inhibition: % inhibition of control enzyme activity, COX2(h) [15]: -7% |
| CC(C)C(Nc1ncnc2[nH]c(C(=O)NC3CCN(C)C3)cc12)c1ccc2c(c1)S(=O)(=O)CCC2 (stereo not drawn) [ASAP-0011198] | 2% | -6% | 16% | 124.089% and 106.936% | 88.282% and 84.091% | > 5.0 µM | 120.684% | 90.027% | > 30 µM | 9.3 uL/min/1E6 cells | 145.0 min and 74.8 min | weak | weak | weak | weak | weak | inhibition at 10 µM ([4]; read-out: perc_inhibition: % inhibition of control enzyme activity, Lck kinase (h)): 15%; inhibition at 10 µM ([5]; read-out: perc_inhibition: % inhibition of control enzyme activity, PDE3A (h)): 4%; EC50 [7, 18]: > 5 µM; EC90 [7, 18]: > 5 µM; inhibition at 10 µM [8, 19]: 4%; inhibition at 10 µM ([10]; read-out: perc_inhibition: % inhibition of control enzyme activity, PDE4D2 (h)): 37%; perc_inhibition_top_conc ([11]; at top test concentration 30 uM, 30 µM): 23.0%; inhibition at 30 µM ([11]; human, at top test concentration 30 uM, read-out: perc_inhibition_top_conc): 18%; clearance (metabolic stability), in words ([16]; HLM/MLM): low clearance; perc_remaining [16, 20]: 70.0%; t_half [16, 20]: 83.8 min; perc_remaining_no_cofactor ([16]; In vitro human liver microsomal stability, no cofactor): 106.0%; microsomal CLint ([16]; liver microsomes, In vitro human liver microsomal stability): 20 µL/min/mg; hepatocyte CLint ([12]; rat, hepatocytes): 4.78 µL/min/1e6 cells; inhibition at 10 µM [14, 19]: 6%; inhibition at 10 µM ([15]; read-out: perc_inhibition: % inhibition of control enzyme activity, COX2(h)): 4% |

Source: publication doi:10.1101/2024.08.19.608619, “Discovery of potent SARS-CoV-2 nsp3 macrodomain inhibitors uncovers lack of translation to cellular antiviral response” (bioRxiv, 2024)
